Results taken from patent publication US11806359B2 (priority 2020, dated 2023).
Values after ≈ are worked out from the molar mass of the structure shown.

Assays:
ZIKV (PLCal_ZV strain) = experiment: CPE-based antiviral assay, ZIKV, neutral red readout (Example 14); type: cell-based, Zikavirus; conditions: 6 days post infection
Method: (§1) A CPE-based antiviral assay was performed by infecting target cells in the presence or absence of test compositions, at a range of concentrations. […] cytopathic effects and cell death. […] For CPE-based assays, cell viability was determined with a neutral red readout. Viable cells incorporate neutral red in their lysosomes. Uptake of neutral red relies on the ability of live cells to maintain a lower pH inside their lysosomes than in the cytoplasm, and this active process requires ATP. Once inside the lysosome, the neutral red dye becomes charged and is retained intracellularly. […] The amount of neutral red in solution was quantified by reading the absorbance (optical density) of each well at 490 nm […]
(§2) Cytotoxic effects were evaluated in uninfected cells by comparing viability in the presence of inhibitors to the viability of mock-treated cells. Cytotoxicity was determined by an XTT viability assay, which was conducted at the same timepoint as the readout for the corresponding infection assay.
(§3) Test compositions were dissolved in 100% methanol. […] When possible, the EC50 and CC50 of the composition was determined for each assay using GraphPad Prism software. […]
Protection of ZIKV-induced cytopathic effect (CPE) with Neutral Red readout: For the ZIKV antiviral assay, the PLCal_ZV strain was used. […]

[1] = system: DENV2 (08-10381 Montserrat strain); experiment: CPE-based antiviral assay, DENV2, neutral red readout (Example 14); type: cell-based, Dengue virus; conditions: 7 days post infection
Method: as §1, §2, §3
Protection of DENV2-induced cytopathic effect (CPE) with Neutral Red readout: For the DENV2 antiviral assay, the 08-10381 Montserrat strain was used. […]

HTLV-1 [2] = experiment: Infectivity of HTLV-1 particles from treated SLB1 cells on primary huPBMCs, p19Gag ELISA; type: cell-based, human T-cell leukemia virus type-1; conditions: even the lowest concentration (10 μg/ml); relative to vehicle control
HTLV-1 [3] = experiment: HTLV-1 transmission in SLB1/huPBMC co-culture, p19Gag ELISA (Example 22); type: cell-based, human T-cell leukemia virus type-1; conditions: 15 min or 3 hrs pre-treatment, 72 hrs co-culture
HTLV-1 [4] = experiment: Virological synapse formation and HTLV-1 transmission, SLB1/pLenti-GFP with huPBMCs, fluorescence microscopy; type: cell-based, human T-cell leukemia virus type-1; conditions: in vitro co-culture
adenovirus = experiment: Antiviral activity against adenovirus; type: cell-based
SARS-CoV-2 [5] = experiment: microbe, parasite or virus in culture; type: cell-based
SARS-CoV-2 [6] = experiment: SARS-CoV-2 treatment post-infection in VERO CCL-81 cells, viral titer (Example 34); type: cell-based; conditions: treated at 12 h and 24 h post-infection, no pretreatment
HIV-1 = conditions: cited from earlier work

CO[C@H]1C[C@H](O[C@H]2CC[C@@]3(C)[C@H](CC[C@@H]4[C@@H]3CC[C@]3(C)[C@@H](C5=CC(=O)OC5)[C@@H](OC(C)=O)C[C@]43O)C2)O[C@@H](C)[C@@H]1O [oleandrin]
efficacy against Zika virus (ZIKV (PLCal_ZV strain)): demonstrates efficacy
efficacy against Dengue virus [1]: demonstrates efficacy
infectivity of newly-synthesized p19Gag-containing virus particles (HTLV-1 [2]): inhibited the infectivity
transmission of HTLV-1 in co-culture (HTLV-1 [3]): inhibited the transmission of HTLV-1
formation of virological synapses and transmission of HTLV-1 (HTLV-1 [4]): inhibited the formation of virological synapses and the transmission of HTLV-1
activity against adenovirus (adenovirus): insufficiently active
concentrations with substantial antiviral activity (SARS-CoV-2 [5]): above 0.01 microg/mL
effect on titer (SARS-CoV-2 [5]): significant reduction in titer
effect on titer compared to DMSO control (SARS-CoV-2 [5]): no significant effect
viral titer (SARS-CoV-2 [5]): substantial reduction in viral titer
viral titer at the two higher doses (SARS-CoV-2 [5]): essentially to or below the limit of detection
EC50 (SARS-CoV-2 [5]; Severe acute respiratory syndrome coronavirus 2, 24 h): 12 ng/mL (≈ 0.0208 µM)
EC50 (SARS-CoV-2 [5]; Severe acute respiratory syndrome coronavirus 2, 48 h): 7.07 ng/mL (≈ 0.0123 µM)
antiviral activity post infection with a single treatment (SARS-CoV-2 [6]): able to exert antiviral activity
toxicity to Vero cells (Vero cells): not overly toxic
cellular toxicity (VERO CCL-81 cells): no cellular toxicity was observed
anti-viral activity against HIV-1 (HIV-1): anti-HIV activity
